In patent US11697648B2, “Fused pyrimidine pyridinone compounds as JAK inhibitors” (THERAVANCE BIOPHARMA R&D IP, LLC, priority 2019, dated 2023):

Key:
JAK1 = JAK1 (Homo sapiens (Human), UniProt P23458); experiment: Biochemical JAK1 kinase assay (LanthaScreen)
Procedure, shortened: (§1)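 GST-JAK + GFP-STAT1 peptide, HEPES pH 7.5/MgCl2/EGTA/Brij-35 buffer; cpd preincubation 1 h RT; ATP start, 1 h RT; stop with 10 mM EDTA + 2 nM Tb-anti-pSTAT1; TR-FRET 520/495. 4-parameter IC50 → pKi (Cheng-Prusoff).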

JAK2 = JAK2 (Homo sapiens (Human), UniProt O60674); experiment: Biochemical JAK2 kinase assay (LanthaScreen)
Procedure, shortened: as §1

JAK3 = JAK3 (Homo sapiens (Human), UniProt P52333); experiment: Biochemical JAK3 kinase assay (LanthaScreen); conditions: for JAK3 (pKi)-JAK1 (pKi): selectivity JAK3 over JAK1, difference of pKi
Procedure, shortened: as §1

Tyk2 = Tyk2 (Homo sapiens (Human), UniProt P29597); experiment: Biochemical Tyk2 kinase assay (LanthaScreen)
Procedure, shortened: as §1

[1] = system: IL-2 stimulated STAT5 phosphorylation in Tall-1 human T cell line (JAK3); experiment: Cellular JAK3 potency assay: inhibition of IL-2 stimulated pSTAT5 in Tall-1 T cells; type: cell-based; conditions: IL-2 stimulated pSTAT5, Tall-1 T cells
Procedure, shortened: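 AlphaLISA SureFire Ultra measures STAT5 Tyr694/699 phosphorylation in lysed Tall-1 human T cells. Cells were exposed to compound for 1 h at 37 °C before a 30 min IL-2 challenge (300 ng/ml final). Values are pIC50 means with standard deviation from signal-versus-concentration curves.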

Caco-2 cell monolayers = experiment: Caco-2 permeation assay; type: in vitro ADME; conditions: 5 μM, A-B direction, with Verapamil (25 μM)
Procedure, shortened: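 Passive A-to-B permeability with P-gp inhibited by verapamil (25 μM); compound at 5 μM, n=2. Both compartments sampled at t0 and t120 and quantified by LC-MS/MS, giving apparent permeability in cm/sec from flux, area and concentration.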

JAK1, sequence (P23458 whole entry): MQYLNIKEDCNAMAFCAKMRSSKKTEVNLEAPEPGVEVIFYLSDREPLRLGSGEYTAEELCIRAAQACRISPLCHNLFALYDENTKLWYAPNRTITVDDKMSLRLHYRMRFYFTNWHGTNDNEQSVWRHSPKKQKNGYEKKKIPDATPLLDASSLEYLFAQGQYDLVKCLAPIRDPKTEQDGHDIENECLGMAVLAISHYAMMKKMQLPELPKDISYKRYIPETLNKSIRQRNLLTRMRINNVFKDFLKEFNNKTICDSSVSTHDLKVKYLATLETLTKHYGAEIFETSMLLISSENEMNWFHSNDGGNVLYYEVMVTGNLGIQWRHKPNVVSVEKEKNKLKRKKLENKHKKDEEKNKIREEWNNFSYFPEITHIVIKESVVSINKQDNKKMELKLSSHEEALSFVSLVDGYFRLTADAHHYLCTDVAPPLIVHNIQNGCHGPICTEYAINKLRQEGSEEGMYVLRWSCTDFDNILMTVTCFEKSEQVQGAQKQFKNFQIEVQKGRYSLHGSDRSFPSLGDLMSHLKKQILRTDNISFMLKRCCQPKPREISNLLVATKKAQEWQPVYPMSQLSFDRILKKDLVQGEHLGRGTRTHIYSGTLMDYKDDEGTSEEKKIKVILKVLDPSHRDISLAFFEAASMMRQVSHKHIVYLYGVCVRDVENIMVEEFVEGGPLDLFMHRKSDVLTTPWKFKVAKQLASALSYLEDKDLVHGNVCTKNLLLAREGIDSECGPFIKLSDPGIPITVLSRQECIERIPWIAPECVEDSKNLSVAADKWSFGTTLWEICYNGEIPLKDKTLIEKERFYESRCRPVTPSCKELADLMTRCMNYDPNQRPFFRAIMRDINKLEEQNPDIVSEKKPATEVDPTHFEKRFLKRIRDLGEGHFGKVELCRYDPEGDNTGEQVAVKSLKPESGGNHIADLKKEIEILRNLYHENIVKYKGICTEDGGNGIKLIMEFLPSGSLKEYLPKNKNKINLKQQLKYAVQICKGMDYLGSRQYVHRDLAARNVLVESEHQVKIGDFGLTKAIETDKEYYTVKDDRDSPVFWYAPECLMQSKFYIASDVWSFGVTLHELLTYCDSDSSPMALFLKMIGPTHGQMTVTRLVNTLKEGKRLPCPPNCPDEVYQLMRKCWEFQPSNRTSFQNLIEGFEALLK
JAK2, sequence (O60674 whole entry): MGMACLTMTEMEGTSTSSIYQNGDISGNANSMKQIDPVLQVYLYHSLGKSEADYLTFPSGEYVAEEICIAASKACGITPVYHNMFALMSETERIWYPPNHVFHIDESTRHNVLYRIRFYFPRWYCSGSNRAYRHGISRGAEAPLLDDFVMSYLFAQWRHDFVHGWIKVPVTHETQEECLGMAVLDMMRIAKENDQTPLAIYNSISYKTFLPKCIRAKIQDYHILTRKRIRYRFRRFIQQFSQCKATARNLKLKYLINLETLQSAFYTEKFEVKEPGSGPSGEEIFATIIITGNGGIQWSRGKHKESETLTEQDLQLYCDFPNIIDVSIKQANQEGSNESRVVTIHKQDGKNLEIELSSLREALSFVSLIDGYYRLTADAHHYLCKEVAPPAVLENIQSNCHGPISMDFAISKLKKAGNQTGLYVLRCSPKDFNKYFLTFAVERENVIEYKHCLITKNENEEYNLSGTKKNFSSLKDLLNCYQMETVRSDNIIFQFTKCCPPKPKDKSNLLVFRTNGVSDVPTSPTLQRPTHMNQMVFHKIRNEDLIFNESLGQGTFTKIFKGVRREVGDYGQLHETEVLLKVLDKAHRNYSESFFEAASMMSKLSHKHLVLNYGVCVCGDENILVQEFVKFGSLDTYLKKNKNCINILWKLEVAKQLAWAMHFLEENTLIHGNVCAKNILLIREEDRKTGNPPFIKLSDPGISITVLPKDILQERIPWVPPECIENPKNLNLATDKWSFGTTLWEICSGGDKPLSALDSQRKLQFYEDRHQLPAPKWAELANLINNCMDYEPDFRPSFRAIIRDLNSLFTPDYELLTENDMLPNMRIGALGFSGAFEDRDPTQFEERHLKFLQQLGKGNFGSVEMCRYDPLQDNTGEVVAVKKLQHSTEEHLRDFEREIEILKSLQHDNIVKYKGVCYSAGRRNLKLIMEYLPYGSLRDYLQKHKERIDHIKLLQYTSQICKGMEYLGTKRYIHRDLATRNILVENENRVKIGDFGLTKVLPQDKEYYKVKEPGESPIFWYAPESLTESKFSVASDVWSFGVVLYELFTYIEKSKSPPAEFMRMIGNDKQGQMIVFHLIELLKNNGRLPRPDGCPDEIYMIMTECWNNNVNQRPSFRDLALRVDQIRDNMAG
JAK3, sequence (P52333 whole entry): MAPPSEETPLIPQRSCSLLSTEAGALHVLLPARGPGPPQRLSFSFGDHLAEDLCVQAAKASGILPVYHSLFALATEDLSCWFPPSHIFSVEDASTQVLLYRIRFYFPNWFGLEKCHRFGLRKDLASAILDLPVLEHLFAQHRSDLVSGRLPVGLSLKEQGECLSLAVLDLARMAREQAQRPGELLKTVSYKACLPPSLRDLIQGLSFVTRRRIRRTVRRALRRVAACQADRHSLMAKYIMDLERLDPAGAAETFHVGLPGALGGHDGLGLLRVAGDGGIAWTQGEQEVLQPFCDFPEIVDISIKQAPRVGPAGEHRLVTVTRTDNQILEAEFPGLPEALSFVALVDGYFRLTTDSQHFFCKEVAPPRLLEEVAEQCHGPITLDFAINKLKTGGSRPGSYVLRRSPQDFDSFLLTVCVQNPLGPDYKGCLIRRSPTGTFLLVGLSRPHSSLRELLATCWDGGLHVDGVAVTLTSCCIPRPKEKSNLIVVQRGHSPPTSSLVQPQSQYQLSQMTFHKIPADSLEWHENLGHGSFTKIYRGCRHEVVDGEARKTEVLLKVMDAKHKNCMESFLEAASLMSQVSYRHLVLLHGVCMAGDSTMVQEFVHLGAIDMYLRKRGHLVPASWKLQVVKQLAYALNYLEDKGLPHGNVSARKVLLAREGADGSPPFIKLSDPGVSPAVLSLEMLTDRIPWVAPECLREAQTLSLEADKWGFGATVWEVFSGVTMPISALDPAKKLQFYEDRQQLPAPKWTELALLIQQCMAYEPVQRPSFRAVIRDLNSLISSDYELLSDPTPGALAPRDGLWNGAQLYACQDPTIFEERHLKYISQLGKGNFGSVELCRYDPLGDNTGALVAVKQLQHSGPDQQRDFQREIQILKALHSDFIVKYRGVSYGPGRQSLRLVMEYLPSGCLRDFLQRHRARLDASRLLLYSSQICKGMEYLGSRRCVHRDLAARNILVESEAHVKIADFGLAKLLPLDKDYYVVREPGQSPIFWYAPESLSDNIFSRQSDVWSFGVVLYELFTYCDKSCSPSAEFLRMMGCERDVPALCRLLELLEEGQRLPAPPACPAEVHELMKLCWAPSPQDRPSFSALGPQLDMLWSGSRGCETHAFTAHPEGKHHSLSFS
Tyk2, sequence (P29597 whole entry): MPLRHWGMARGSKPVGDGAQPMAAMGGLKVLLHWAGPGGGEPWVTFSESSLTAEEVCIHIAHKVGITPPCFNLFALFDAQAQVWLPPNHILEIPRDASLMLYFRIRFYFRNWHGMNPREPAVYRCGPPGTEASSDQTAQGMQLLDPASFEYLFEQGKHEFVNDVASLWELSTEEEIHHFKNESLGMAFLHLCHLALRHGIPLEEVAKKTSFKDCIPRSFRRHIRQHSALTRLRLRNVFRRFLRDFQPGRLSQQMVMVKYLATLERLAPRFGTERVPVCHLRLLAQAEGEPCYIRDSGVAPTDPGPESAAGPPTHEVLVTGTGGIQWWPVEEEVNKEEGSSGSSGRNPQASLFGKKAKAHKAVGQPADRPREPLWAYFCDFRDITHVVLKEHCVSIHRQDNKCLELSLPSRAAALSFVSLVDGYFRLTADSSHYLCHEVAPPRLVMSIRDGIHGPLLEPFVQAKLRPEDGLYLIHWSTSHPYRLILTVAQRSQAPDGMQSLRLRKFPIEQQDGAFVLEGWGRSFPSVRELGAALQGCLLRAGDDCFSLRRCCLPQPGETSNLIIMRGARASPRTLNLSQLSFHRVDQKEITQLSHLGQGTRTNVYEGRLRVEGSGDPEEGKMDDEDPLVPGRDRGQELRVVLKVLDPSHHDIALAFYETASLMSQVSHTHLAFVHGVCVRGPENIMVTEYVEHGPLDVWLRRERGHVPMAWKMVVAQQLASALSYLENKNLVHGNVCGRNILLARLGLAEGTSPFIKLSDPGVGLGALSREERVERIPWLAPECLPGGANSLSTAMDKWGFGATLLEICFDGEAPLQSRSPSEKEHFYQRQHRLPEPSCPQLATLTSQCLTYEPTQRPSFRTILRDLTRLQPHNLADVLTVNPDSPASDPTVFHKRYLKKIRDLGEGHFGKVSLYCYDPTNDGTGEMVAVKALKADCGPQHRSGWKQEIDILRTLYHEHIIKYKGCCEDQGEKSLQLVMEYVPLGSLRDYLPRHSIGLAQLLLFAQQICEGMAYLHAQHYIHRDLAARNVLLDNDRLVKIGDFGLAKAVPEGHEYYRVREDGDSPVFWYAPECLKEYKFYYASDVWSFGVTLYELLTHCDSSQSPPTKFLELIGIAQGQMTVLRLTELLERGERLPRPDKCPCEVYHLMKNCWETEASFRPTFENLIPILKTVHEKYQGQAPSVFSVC

| SMILES | JAK 1 (pKi) (JAK1) | JAK 2 (pKi) (JAK2) | JAK 3 (pKi) (JAK3) | JAK3 (pKi)-JAK1 (pKi) (JAK3) | Tyk 2 (pKi) (Tyk2) | Tall-1 (pIC50) [1] | Caco Kp (Caco-2 cell monolayers) |
| --- | --- | --- | --- | --- | --- | --- | --- |
| C=CC(=O)N1CC(CCn2c(=O)ccc3cnc(Nc4ccc(N5CCN(C(C)(C)C)CC5)cc4)nc32)C1 [Example 62] | E (E represents a pKi value of 7 or below (Ki of 100 nM or above)) | E (E represents a pKi value of 7 or below (Ki of 100 nM or above)) | B (B represents pKi value between 9 and 10 (Ki between 1 nM and 0.1 nM)) | A (A represents a value of 3 or above) | E (E represents a pKi value of 7 or below (Ki of 100 nM or above)) | A (A represents a pIC50 value≥7.5 (IC50≤32 nM)) | B (B represents a value between 5×10^−6 and 10×10^−6 cm/sec) |
| C=CC(=O)N1CCN(CCn2c(=O)ccc3cnc(Nc4ccc(N5CCN(CCOC)CC5)cc4)nc32)CC1 [Example 208] | E (E represents a pKi value of 7 or below (Ki of 100 nM or above)) | E (E represents a pKi value of 7 or below (Ki of 100 nM or above)) | B (B represents pKi value between 9 and 10 (Ki between 1 nM and 0.1 nM)) | A (A represents a value of 3 or above) | E (E represents a pKi value of 7 or below (Ki of 100 nM or above)) | B (B represents a pC50 value between 6.7 (included) and 7.5 (IC50 between 200 nM and 32 nM)) | B (B represents a value between 5×10^−6 and 10×10^−6 cm/sec) |
| C=CC(=O)N1CCN(CCn2c(=O)ccc3cnc(Nc4ccc(CN5CCOCC5)cc4)nc32)CC1 [Example 80] | E (E represents a pKi value of 7 or below (Ki of 100 nM or above)) | E (E represents a pKi value of 7 or below (Ki of 100 nM or above)) | B (B represents pKi value between 9 and 10 (Ki between 1 nM and 0.1 nM)) | A (A represents a value of 3 or above) | E (E represents a pKi value of 7 or below (Ki of 100 nM or above)) | B (B represents a pC50 value between 6.7 (included) and 7.5 (IC50 between 200 nM and 32 nM)) | C (C represents a value between 10×10^−6 and 30×10^−6 cm/sec) |
| C=CC(=O)N1CCN(CCn2c(=O)ccc3cnc(Nc4ccc(N5CCN(C(=O)OC)CC5)cc4)nc32)[C@@H](C)C1 [Example 172] | E (E represents a pKi value of 7 or below (Ki of 100 nM or above)) | E (E represents a pKi value of 7 or below (Ki of 100 nM or above)) | B (B represents pKi value between 9 and 10 (Ki between 1 nM and 0.1 nM)) | A (A represents a value of 3 or above) | E (E represents a pKi value of 7 or below (Ki of 100 nM or above)) | A (A represents a pIC50 value≥7.5 (IC50≤32 nM)) | C (C represents a value between 10×10^−6 and 30×10^−6 cm/sec) |
| C=CC(=O)N1CCN(C(C)Cn2c(=O)ccc3cnc(Nc4ccc(N5CCN(C(C)=O)CC5)cc4)nc32)CC1 (stereo not shown) [Example 201] | E (E represents a pKi value of 7 or below (Ki of 100 nM or above)) | E (E represents a pKi value of 7 or below (Ki of 100 nM or above)) | B (B represents pKi value between 9 and 10 (Ki between 1 nM and 0.1 nM)) | A (A represents a value of 3 or above) | E (E represents a pKi value of 7 or below (Ki of 100 nM or above)) | B (B represents a pC50 value between 6.7 (included) and 7.5 (IC50 between 200 nM and 32 nM)) | A (A represents a value below 5×10^−6 cm/sec) |
| C=CC(=O)N1CC(CCn2c(=O)ccc3cnc(Nc4ccc(N5CCN(C)[C@H](C)C5)cc4)nc32)C1 [Example 162] | E (E represents a pKi value of 7 or below (Ki of 100 nM or above)) | E (E represents a pKi value of 7 or below (Ki of 100 nM or above)) | A (A represents a pKi value≥10 (Ki≤0.1 nM)) | A (A represents a value of 3 or above) | E (E represents a pKi value of 7 or below (Ki of 100 nM or above)) | A (A represents a pIC50 value≥7.5 (IC50≤32 nM)) | C (C represents a value between 10×10^−6 and 30×10^−6 cm/sec) |
| C=CC(=O)N1CCN(CCn2c(=O)ccc3cnc(Nc4cnn(C(C)(C)COC)c4)nc32)[C@@H](CC)C1 [Example 203] | E (E represents a pKi value of 7 or below (Ki of 100 nM or above)) | E (E represents a pKi value of 7 or below (Ki of 100 nM or above)) | B (B represents pKi value between 9 and 10 (Ki between 1 nM and 0.1 nM)) | A (A represents a value of 3 or above) | E (E represents a pKi value of 7 or below (Ki of 100 nM or above)) | B (B represents a pC50 value between 6.7 (included) and 7.5 (IC50 between 200 nM and 32 nM)) | C (C represents a value between 10×10^−6 and 30×10^−6 cm/sec) |
| C=CC(=O)N1CC(CCn2c(=O)ccc3cnc(Nc4ccc(N5CCN(C(C)=O)[C@@H](C)C5)cc4)nc32)C1 [Example 167] | E (E represents a pKi value of 7 or below (Ki of 100 nM or above)) | E (E represents a pKi value of 7 or below (Ki of 100 nM or above)) | A (A represents a pKi value≥10 (Ki≤0.1 nM)) | A (A represents a value of 3 or above) | E (E represents a pKi value of 7 or below (Ki of 100 nM or above)) | B (B represents a pC50 value between 6.7 (included) and 7.5 (IC50 between 200 nM and 32 nM)) | A (A represents a value below 5×10^−6 cm/sec) |
| C=CC(=O)N1CC(CCn2c(=O)ccc3cnc(Nc4ccc(N5CCN(C(=O)CCS(C)(=O)=O)CC5)cc4)nc32)C1 [Example 140] | E (E represents a pKi value of 7 or below (Ki of 100 nM or above)) | E (E represents a pKi value of 7 or below (Ki of 100 nM or above)) | A (A represents a pKi value≥10 (Ki≤0.1 nM)) | A (A represents a value of 3 or above) | E (E represents a pKi value of 7 or below (Ki of 100 nM or above)) | C (C represents a pIC50 value between 6 and 6.7 (IC50 between 1 μM and 200 nM)) | A (A represents a value below 5×10^−6 cm/sec) |
| C=CC(=O)N1CC(CCn2c(=O)ccc3cnc(Nc4ccc5cn[nH]c5c4)nc32)C1 [Example 83] | E (E represents a pKi value of 7 or below (Ki of 100 nM or above)) | E (E represents a pKi value of 7 or below (Ki of 100 nM or above)) | B (B represents pKi value between 9 and 10 (Ki between 1 nM and 0.1 nM)) | A (A represents a value of 3 or above) | E (E represents a pKi value of 7 or below (Ki of 100 nM or above)) | C (C represents a pIC50 value between 6 and 6.7 (IC50 between 1 μM and 200 nM)) | A (A represents a value below 5×10^−6 cm/sec) |
| C=CC(=O)N1CCN(CCn2c(=O)ccc3cnc(Nc4cnn(C)c4)nc32)[C@@H](CO)C1 [Example 131] | E (E represents a pKi value of 7 or below (Ki of 100 nM or above)) | E (E represents a pKi value of 7 or below (Ki of 100 nM or above)) | B (B represents pKi value between 9 and 10 (Ki between 1 nM and 0.1 nM)) | A (A represents a value of 3 or above) | E (E represents a pKi value of 7 or below (Ki of 100 nM or above)) | C (C represents a pIC50 value between 6 and 6.7 (IC50 between 1 μM and 200 nM)) | A (A represents a value below 5×10^−6 cm/sec) |
| C=CC(=O)N1CC(CCn2c(=O)ccc3cnc(Nc4ccc(N5CCC(C)CC5)cc4)nc32)C1 [Example 142] | E (E represents a pKi value of 7 or below (Ki of 100 nM or above)) | E (E represents a pKi value of 7 or below (Ki of 100 nM or above)) | A (A represents a pKi value≥10 (Ki≤0.1 nM)) | A (A represents a value of 3 or above) | E (E represents a pKi value of 7 or below (Ki of 100 nM or above)) | B (B represents a pC50 value between 6.7 (included) and 7.5 (IC50 between 200 nM and 32 nM)) | C (C represents a value between 10×10^−6 and 30×10^−6 cm/sec) |
| C=CC(=O)N1CC(CCn2c(=O)ccc3cnc(Nc4ccc(N5CCN(C(=O)CC#N)CC5)cc4)nc32)C1 [Example 72] | E (E represents a pKi value of 7 or below (Ki of 100 nM or above)) | E (E represents a pKi value of 7 or below (Ki of 100 nM or above)) | B (B represents pKi value between 9 and 10 (Ki between 1 nM and 0.1 nM)) | A (A represents a value of 3 or above) | E (E represents a pKi value of 7 or below (Ki of 100 nM or above)) | B (B represents a pC50 value between 6.7 (included) and 7.5 (IC50 between 200 nM and 32 nM)) | A (A represents a value below 5×10^−6 cm/sec) |
